This is an account of results in EP3772943B1, “FORMULATION OF INSECTICIDAL MIXTURES WITH PROPYLENE CARBONATE” (Bayer Aktiengesellschaft, priority 2018, dated 2019).

The subject of the series is enzymatisch isolierte Kutikeln von Apfelbaumblättern. Description: Cuticle penetration test in diffusion cells with HPLC read-out (Beispiel V). The series is classed as in vitro ADME, Apfelbäumen. As to conditions: active substances without additives and in presence of propylene carbonate (Tabelle V, Eintrag 1,2). The text has this: In diesem Test wird die Penetration von Wirkstoffen durch enzymatisch isolierte Kutikeln von Apfelbaumblättern gemessen.
Verwendet werden Blätter, die in voll entwickeltem Zustand von Apfelbäumen abgeschnitten werden und nach der Methode beschrieben bei Schönherr und Riederer isoliert (Schönherr, J., Riederer, M. (1986)). Es werden nur die von Spaltöffnungen und Haaren freien Kutikeln der Blattoberseiten weiter verwendet. Die so gewonnenen Kutikularmembranen werden für Membran-Transport-Untersuchungen in Diffusionszellen (=Transportkammern) aus Edelstahl eingelegt. Dazu werden die Kutikeln mit einer Pinzette mittig auf die mit Silikonfett bestrichenen Ränder der Diffusionszellen plaziert und mit einem ebenfalls gefetteten Ring verschlossen. Die Anordnung ist so gewählt, dass die morphologische Außenseite der Kutikeln nach außen, also zur Luft, gerichtet ist, während die ursprüngliche Innenseite dem Inneren der Diffusionszelle zugewandt ist. Die Diffusionszellen sind mit Wasser bzw. mit einem Gemisch aus Wasser und Lösungsmittel gefüllt und auf des physiologisch relevante pH von 5.5 gepuffert. Das Medium der Diffusionszellen soll das Apoplast, also das natürliche Aufnahmemdium im inneren des Blattes nachstellen. […]

With `O=C1C=C(N(Cc2ccc(Cl)nc2)CC(F)F)CO1` [Flupyradifurone], the Kutikelpenetration entry is reported as “keine oder kaum Kutikelpenetration”.
